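Compound exposure: 48 hours, 5 concentrations, 96-well plates. TGI: total growth inhibition.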

Among the data in PubChem BioAssay (NCI) are TGI values, retold here.

Among the test systems are A549 NSCLC; ACHN renal; BT-549 breast; HOP-92 NSCLC; HS 578T breast; HT29 colon; KM12 colon; NCI/ADR-RES ovarian; OVCAR-3 ovarian; OVCAR-8 ovarian; PC-3 prostate; SF-268 CNS; SK-MEL-28 melanoma; SK-MEL-5 melanoma; SNB-19 CNS; SR leukemia; T-47D breast; UO-31 renal; COLO 205 colon; IGROV1 ovarian.
Common to all, as to assay: inhibition of tumour cell growth, NCI panel, 48 h

As for `COc1ccc(OC)c2c1C(=O)C(Cl)=C(N1CCN(CCOCCO)CC1)C2=O`, the TGI in the test with A549 NSCLC stood at 39 µM; in the test on ACHN renal, 30.3 µM; with BT-549 breast, 28 µM; with HOP-92 NSCLC, 31.8 µM; in the test with HS 578T breast, 38.2 µM; in the test on HT29 colon it was 19.8 µM. For the same compound, the TGI with KM12 colon was 37.2 µM; in the test with NCI/ADR-RES ovarian it was 59 µM; in the test on OVCAR-3 ovarian, 31.1 µM; in the test with OVCAR-8 ovarian, 30.9 µM; in the test with PC-3 prostate, 16 µM; in the test on SF-268 CNS, 29.5 µM. The TGI came out at 30.9 µM in the test on SK-MEL-28 melanoma; 31.3 µM in the test with SK-MEL-5 melanoma; 29.5 µM in the test with SNB-19 CNS; 29.3 µM in the test on SR leukemia; 13.1 µM in the test on T-47D breast; 29.9 µM with UO-31 renal.

As to `Clc1cccc(Cl)c1C1SCC2=Nc3ccccc3CN21` (stereo not drawn), the TGI was 56.5 µM with A549 NSCLC; greater than 100 µM with BT-549 breast; 27 µM in the test on COLO 205 colon; greater than 100 µM in the test with HOP-92 NSCLC; 62.2 µM with HS 578T breast; 62.5 µM in the test with IGROV1 ovarian. The TGI is 48.1 µM with KM12 colon; 40 µM in the test with NCI/ADR-RES ovarian; 29.5 µM with OVCAR-3 ovarian; 52.4 µM in the test on PC-3 prostate; greater than 100 µM in the test with SF-268 CNS; 91.2 µM in the test on SK-MEL-28 melanoma. Moreover, the TGI with SK-MEL-5 melanoma was 29.2 µM; in the test on SNB-19 CNS, 25.8 µM; with SR leukemia it was greater than 100 µM; in the test with T-47D breast it was 85.1 µM; in the test with UO-31 renal, 43.2 µM.

For the compound `CCCCn1c(C)c(C(=O)OCC)c2cc(OCc3ccc(C(=O)Nn4c(C)ccc4C)cc3)c(Br)cc21`, the TGI with A549 NSCLC, in the test with ACHN renal, in the test with BT-549 breast, with COLO 205 colon, with HOP-92 NSCLC and with HS 578T breast was greater than 100 µM each time. In addition, the TGI in the test on HT29 colon, with IGROV1 ovarian, in the test with KM12 colon, in the test on NCI/ADR-RES ovarian, in the test with OVCAR-3 ovarian and in the test on OVCAR-8 ovarian was greater than 100 µM throughout. Also, the TGI with PC-3 prostate, in the test on SF-268 CNS, in the test with SK-MEL-28 melanoma, in the test with SK-MEL-5 melanoma, with SNB-19 CNS and in the test on SR leukemia was greater than 100 µM throughout. This compound also displayed a TGI in the test with T-47D breast greater than 100 µM.

Turning to `CCN(CC)Cc1cc(Nc2ccnc3ccc4c(nnn4C)c23)ccc1O`, the TGI in the test with A549 NSCLC was 27 µM; with ACHN renal, 8.38 µM; with BT-549 breast, 37.1 µM; in the test with COLO 205 colon it was 32.4 µM; with HS 578T breast, 42.1 µM; in the test with HT29 colon it was greater than 100 µM. The TGI with IGROV1 ovarian came to 80.3 µM; in the test with KM12 colon, 39.7 µM; with NCI/ADR-RES ovarian, 52.7 µM; in the test on OVCAR-3 ovarian it was 39.9 µM; in the test on OVCAR-8 ovarian, 41.9 µM; with PC-3 prostate, 20.8 µM. Also, the TGI with SF-268 CNS was determined as 29.9 µM; in the test with SK-MEL-28 melanoma, 17.8 µM; in the test on SK-MEL-5 melanoma, 29.9 µM; in the test on SNB-19 CNS, 21.3 µM; in the test on SR leukemia it was 18.6 µM; in the test on T-47D breast, 63.5 µM. In addition, the TGI with UO-31 renal came to 23.6 µM.

In the case of `Nc1ccc(C(=O)Nn2c(-c3ccccc3)nc3ccccc3c2=O)cc1`, the TGI with A549 NSCLC, with ACHN renal, in the test on BT-549 breast, in the test on COLO 205 colon, in the test with HOP-92 NSCLC and with HS 578T breast was greater than 100 µM in each case. Further, the TGI in the test with HT29 colon, with IGROV1 ovarian, with KM12 colon, with OVCAR-3 ovarian, in the test on OVCAR-8 ovarian and in the test with PC-3 prostate was greater than 100 µM in each case. Also, the TGI in the test on SF-268 CNS, in the test with SK-MEL-28 melanoma, in the test with SK-MEL-5 melanoma, with SNB-19 CNS, in the test with SR leukemia and in the test on T-47D breast was greater than 100 µM throughout. The same compound registered a TGI in the test on UO-31 renal greater than 100 µM.

For the compound `CCOC(=O)N/N=C(/N)Cc1ccccc1`, the TGI in the test with A549 NSCLC, in the test with ACHN renal, in the test with BT-549 breast, in the test on COLO 205 colon, with HOP-92 NSCLC and in the test with HS 578T breast was greater than 100 µM throughout. The TGI with IGROV1 ovarian, in the test with KM12 colon, in the test with NCI/ADR-RES ovarian, in the test on OVCAR-3 ovarian, in the test with OVCAR-8 ovarian and in the test with PC-3 prostate was greater than 100 µM throughout. Moreover, the TGI in the test on SF-268 CNS, in the test with SK-MEL-28 melanoma, in the test on SK-MEL-5 melanoma, in the test on SNB-19 CNS, in the test on SR leukemia and with T-47D breast was greater than 100 µM in each case. Besides, the TGI with UO-31 renal is greater than 100 µM.

Take `Oc1cc(O)c2c(c1)O[C@H](c1cc(O)c(O)c(O)c1)[C@H](O)C2`: the TGI in the test with A549 NSCLC was 76.7 µM; with ACHN renal, 48.9 µM; with BT-549 breast, 56.6 µM; in the test with COLO 205 colon, 33.2 µM; with HOP-92 NSCLC, greater than 100 µM; in the test with HS 578T breast, greater than 100 µM. Moreover, the TGI was 41.9 µM in the test with IGROV1 ovarian; 63.8 µM in the test on NCI/ADR-RES ovarian; greater than 100 µM with OVCAR-3 ovarian; 29.6 µM in the test on OVCAR-8 ovarian; 42.9 µM with PC-3 prostate; 61.2 µM in the test with SF-268 CNS. Also, the TGI was greater than 100 µM with SK-MEL-28 melanoma; 37.6 µM in the test on SK-MEL-5 melanoma; greater than 100 µM with SNB-19 CNS; 27.6 µM with SR leukemia; 80.7 µM in the test on T-47D breast; 39.4 µM in the test with UO-31 renal.

As for `CCCN=C(NC(=O)c1ccc(Cl)cc1)SC`, the TGI in the test with A549 NSCLC is greater than 100 µM; with ACHN renal, greater than 100 µM; in the test with BT-549 breast, 89.8 µM; in the test with COLO 205 colon, greater than 100 µM; in the test with HS 578T breast, 95 µM; in the test with HT29 colon it was greater than 100 µM. The TGI in the test on IGROV1 ovarian, in the test with KM12 colon, in the test with NCI/ADR-RES ovarian, in the test on OVCAR-3 ovarian, with OVCAR-8 ovarian and in the test on PC-3 prostate was greater than 100 µM in each case. The TGI in the test on SF-268 CNS, in the test on SK-MEL-28 melanoma, in the test with SK-MEL-5 melanoma, in the test with SNB-19 CNS, in the test on SR leukemia and with T-47D breast was greater than 100 µM in each case. In the test with UO-31 renal, this compound returned a TGI of 46.4 µM.
